Measurements: patent publication US4921865A, “Aminoacylates of glycerol acetal” (Societe de Conseils de Recherches et d'Applications …, priority 1987, dated 1990)

Key:
[1] = target: T1, [^3 H]-PAF binding, platelet membrane (Oryctolagus cuniculus, UniProt G1TEI7); experiment: inhibition of specific [3H]-PAF binding to rabbit platelet membranes; conditions: 1 nM [3H]-PAF, 0°C 1 h 30
T1 construct: Platelet membrane homogenate was stored at -80° C; from tissue; host or cells: rabbit platelets (membrane homogenate from lysed washed platelets)
T1 sequence (G1TEI7 1-342): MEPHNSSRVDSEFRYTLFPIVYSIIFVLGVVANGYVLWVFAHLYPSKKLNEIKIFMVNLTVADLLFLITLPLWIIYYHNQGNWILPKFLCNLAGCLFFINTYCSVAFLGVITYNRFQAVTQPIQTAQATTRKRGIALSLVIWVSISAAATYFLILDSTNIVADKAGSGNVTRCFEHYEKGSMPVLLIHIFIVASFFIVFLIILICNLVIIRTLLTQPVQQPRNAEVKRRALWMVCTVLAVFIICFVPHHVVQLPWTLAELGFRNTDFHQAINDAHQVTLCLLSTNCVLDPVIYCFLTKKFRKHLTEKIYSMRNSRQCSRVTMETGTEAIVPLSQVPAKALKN
Description: Synthetic tritiated [^3 H]-PAF used was in ethanol solution with a specific activity of 59.5 ci/mmols. Unlabelled PAF and lyso-PAF were solubilized in ethanol solution and stored at -80° C. The compounds were solubilized in DMSO.
Rabbit whole blood (6 volumes) was drawn from the central ear artery into 1 volume of ACD solution (citric acide 1.4 g, sodium citrate 2 5 g, Dextrose 2 g per 100 ml of H2 O) and centrifuged at 150 g for 15 minutes. The platelet-rich plasma (PRP) was carefully removed and centrifuged for 15 minutes at 1000 g. The platelet pellet was then washed 3 times: twice in Tris-HCl buffer 10 mM, pH 7.4 containing NaCl 150 mM, MgCl2 5 mM, EDTA 2 mM and the last time in the same but sodium-free buffer.
The platelet pellet was resuspended in this latter buffer, quickly frozen in liquid nitrogen and slowly thawed at room temperature for at least 3 times as described by T. Y. Shen et al. The lysed platelets were centrifuged at 100,000 g for 30 minutes in a BECKMAN model L8.55 ultra centrifuge (rotor 50.2 Ti). Platelet membrane homogenate was stored at -80° C. and used within two weeks without noticeable changes in PAF-acether binding characteristics.
Protein contain was determined by the Lowry method using bovine serum albumine as standard.
60 to 100 μg of membrane proteins were added to a final volume of 1 ml in plastic tubes containing 1 nM [^3 H]-PAF in Tris-HCl 10 mM pH 7 buffer containing 0.025 % bovine serum albumin and incubated with or without unlabelled PAF or PAF-antagonists. The incubation was carried out for 1 h 30 at 0° C. The bound [^3 H]-PAF was separated from the free [^3 H]-PAF by immediate filtration through whatman GF/C glass fiber filters under vacuum (Brandel system). The reaction and the filters were washed 3 times with 5 ml of ice-cold buffer. The filters were then placed into polyethylene phials filled up with 10 ml of liquid scintillation fluid and the radioactivity was measured by an LKB β counter with 45% efficiency.
The non specific binding was determined in the presence of 10^-6 M of unlabelled PAF. The specific binding was calculated by substracting non specific binding from the total binding. The inhibition by compounds on the specific [^3 H]-PAF binding was determined as the percent inhibition by the equation: [formula]

[2] = test system: PAF-induced bronchoconstriction; experiment: PAF-induced bronchoconstriction in the guinea pig; format: in vivo; conditions: for Percentage Variation (bronchoconstriction): vs control; for inhibition of PAF-induced bronchoconstriction (in words): pyridinium compound 0.5, 1 and 5 mg/kg IV, quinolinium compound 0.5 and 1 mg/kg IV
Description: (§1) Male Guinea-pig (400-500 g) were anesthetized with urethane (1.5 g/kg: IP) prior to be tracheotomized and ventilated with a respiratory pump (UGO BASILE) (70-80 breath/minute, 1 ml air/100 g/breath) to abolish spontaneous respiration a pneumothorax was performed. The resistance to inflation was measured with a pressure transducer (UGO BASILE) against an initial pressure of 10 cm H2 O according to Konzett and Rossler. Animals were allocated into groups and were treated or not by the compounds of the invention (0.05, 0.1, 0.5, 1 and 5 mg/kg).The products were given IV 1 hour before challenge with PAF.
(§2) The animals were challenged with various doses of PAF ([…]) given intravenously, and the variations in the resistance to inflation were recorded.

[3] = test system: PAF-induced thrombocytopenia; experiment: PAF-induced thrombocytopenia in the guinea pig; format: in vivo; conditions: for Percentage Variation (thrombocytopenia): vs control; for inhibition of PAF-induced thrombocytopenia (in words): pyridinium compound 0.5, 1 and 5 mg/kg IV, quinolinium compound 0.5 and 1 mg/kg IV; for Percentage Decrease in leukocyte number: thrombocytopenia
Description: as §1, §2
Blood samples were collected prior to and 1,5 and 10 minutes following to PAF-challenge. Forty μl of blood were diluted in 10 ml isoton (Coultronics, France); erythrocytes were lysed with Zapoglobin (France) prior leukocytes were counted in a coulter counter. To determine platelet number, 40 μl of blood were diluted in 2 ml isoton and centrifuged at 100 runs per minute for 30 secondes, 100 μl of the supernatant were collected and further diluted in 10 ml isoton prior counting in a coulter counter.

[4] = test system: antigen-induced bronchoconstriction; experiment: antigen-induced bronchoconstriction in passively sensitized guinea-pigs; format: in vivo, guinea-pig (Hartley); conditions: 5 mg/kg IV
[5] = test system: antigen-induced leukopenia; experiment: antigen-induced leukopenia in passively sensitized guinea-pigs; format: in vivo, guinea-pig (Hartley); conditions: 5 mg/kg IV; for Percentage Inhibition (leukopenia): vs control
[6] = test system: antigen-induced thrombocytopenia; experiment: antigen-induced thrombocytopenia in passively sensitized guinea-pigs; format: in vivo, guinea-pig (Hartley); conditions: 5 mg/kg IV; for Percentage Inhibition (thrombocytopenia): vs control

## CCCCCCCCCCCCCCCCCC1(C)OCC(COC(=O)CCCCC[n+]2ccccc2)O1 (stereo not drawn) [Example 9, 2-heptadecyl 2-methyl 4-[6'-(N-pyridinium)hexanoyloxymethyl] 1,3 dioxolan bromide]
[1]
  IC50: 0.035 µM
[2]; 0.05 mg/kg IV
  Percentage Bronchoconstriction: 79.0 +/- 9.27%
  Percentage Variation (bronchoconstriction): -1.0%
[2]; 0.1 mg/kg IV
  Percentage Bronchoconstriction: 43.8 +/- 14.77%
  Percentage Variation (bronchoconstriction): -45.1%
[2]; 0.5 mg/kg IV
  Percentage Bronchoconstriction: 23.6 +/- 7.15%
  Percentage Variation (bronchoconstriction): -70.4%
[2]; 1 mg/kg IV
  Percentage Bronchoconstriction: 19.1 +/- 10.51%
  Percentage Variation (bronchoconstriction): -76.1%
[2]; 5 mg/kg IV
  Percentage Bronchoconstriction: 3.5 +/- 1.53%
  Percentage Variation (bronchoconstriction): -95.6%
[2]
  inhibition of PAF-induced bronchoconstriction (in words): inhibit
[3]; 0.05 mg/kg IV, 1 mn
  Percentage Variation (thrombocytopenia): -34.1%
  Percentage Decrease in leukocyte number: 45.2 +/- 1.20%
[3]; 0.05 mg/kg IV, 5 mn
  Percentage Variation (thrombocytopenia): +1.4%
  Percentage Decrease in leukocyte number: 43.0 +/- 4.80%
[3]; 0.05 mg/kg IV, 10 mn
  Percentage Variation (thrombocytopenia): -15.1%
  Percentage Decrease in leukocyte number: 36.1 +/- 2.41%
[3]; 0.1 mg/kg IV, 1 mn
  Percentage Variation (thrombocytopenia): -56.1%
  Percentage Decrease in leukocyte number: 30.1 +/- 13.72%
[3]; 0.1 mg/kg IV, 5 mn
  Percentage Variation (thrombocytopenia): -18.2%
  Percentage Decrease in leukocyte number: 34.7 +/- 3.60%
[3]; 0.1 mg/kg IV, 10 mn
  Percentage Variation (thrombocytopenia): -0.5%
  Percentage Decrease in leukocyte number: 42.3 +/- 4.79%
[3]; 0.5 mg/kg IV, 1 mn
  Percentage Variation (thrombocytopenia): -71.9%
  Percentage Decrease in leukocyte number: 19.3 +/- 10.19%
[3]; 0.5 mg/kg IV, 5 mn
  Percentage Variation (thrombocytopenia): -77.4%
  Percentage Decrease in leukocyte number: 9.6 +/- 12.15%
[3]; 0.5 mg/kg IV, 10 mn
  Percentage Variation (thrombocytopenia): -74.4%
  Percentage Decrease in leukocyte number: 10.9 +/- 9.94%
[3]; 1 mg/kg IV, 1 mn
  Percentage Variation (thrombocytopenia): -83.2%
  Percentage Decrease in leukocyte number: 11.5 +/- 6.21%
[3]; 1 mg/kg IV, 5 mn
  Percentage Variation (thrombocytopenia): -46.9%
  Percentage Decrease in leukocyte number: 22.5 +/- 3.27%
[3]; 1 mg/kg IV, 10 mn
  Percentage Variation (thrombocytopenia): -50.6%
  Percentage Decrease in leukocyte number: 21.0 +/- 3.87%
[3]; 5 mg/kg IV, 1 mn
  Percentage Variation (thrombocytopenia): -93.9%
  Percentage Decrease in leukocyte number: 4.2 +/- 2.35%
[3]; 5 mg/kg IV, 5 mn
  Percentage Variation (thrombocytopenia): -86.8%
  Percentage Decrease in leukocyte number: 5.6 +/- 1.84%
[3]; 5 mg/kg IV, 10 mn
  Percentage Variation (thrombocytopenia): -97.4%
  Percentage Decrease in leukocyte number: 1.1 +/- 1.15%
[3]
  inhibition of PAF-induced thrombocytopenia (in words): inhibit
[4]
  Percentage Bronchoconstriction: 51.3 +/- 14.2%
  effect on antigen-induced bronchoconstriction (in words): without significantly reducing
[4]; vs control
  Percentage Variation (bronchoconstriction): -28.7%
[5]
  effect on antigen-induced leukopenia (in words): antagonizes
[5]; 1 mn
  Percentage Decrease in leukocytes number: -15.6 +/- 6.6%
  Percentage Inhibition (leukopenia): +32.0%
[5]; 5 mn
  Percentage Decrease in leukocytes number: -8.7 +/- 10.7%
  Percentage Inhibition (leukopenia): -78.0%
[5]; 10 mn
  Percentage Decrease in leukocytes number: -12.3 +/- 14.1%
  Percentage Inhibition (leukopenia): -77.2%
[6]
  effect on antigen-induced thrombocytopenia (in words): antagonizes
[6]; 1 mn
  Percentage Inhibition (thrombocytopenia): -104.4%
[6]; 5 mn
  Percentage Inhibition (thrombocytopenia): -91.2%
[6]; 10 mn
  Percentage Inhibition (thrombocytopenia): -39.8%

## CCCCCCCCCCCCCCCCCC1(C)OCC(COC(=O)CCCCC[n+]2cccc3ccccc32)O1 (stereo not drawn) [Example 10, 2-heptadecyl 2-methyl 4-[6'-(N-quinolinium)hexanoyloxymethyl) 1,3-dioxolanbromide]
[1]
  IC50: 0.035 µM
[2]; 0.1 mg/kg IV
  Percentage Bronchoconstriction: 80.4 +/- 13.78%
  Percentage Variation (bronchoconstriction): -11.5%
[2]; 0.5 mg/kg IV
  Percentage Bronchoconstriction: 25.1 +/- 6.53%
  Percentage Variation (bronchoconstriction): -72.4%
[2]; 1 mg/kg IV
  Percentage Bronchoconstriction: 8.1 +/- 2.91%
  Percentage Variation (bronchoconstriction): -91.1%
[2]
  inhibition of PAF-induced bronchoconstriction (in words): inhibit
[3]; 0.1 mg/kg IV, 1 mn
  Percentage Variation (thrombocytopenia): -21.7%
  Percentage Decrease in leukocyte number: 51.1 +/- 12.1%
[3]; 0.1 mg/kg IV, 5 mn
  Percentage Variation (thrombocytopenia): 0%
  Percentage Decrease in leukocyte number: 49.1 +/- 8.8%
[3]; 0.1 mg/kg IV, 10 mn
  Percentage Variation (thrombocytopenia): -7.2%
  Percentage Decrease in leukocyte number: 45.0 +/- 9.7%
[3]; 0.5 mg/kg IV, 1 mn
  Percentage Variation (thrombocytopenia): -59.9%
  Percentage Decrease in leukocyte number: 26.2 +/- 6.3%
[3]; 0.5 mg/kg IV, 5 mn
  Percentage Variation (thrombocytopenia): -39.3%
  Percentage Decrease in leukocyte number: 29.8 +/- 1.7%
[3]; 0.5 mg/kg IV, 10 mn
  Percentage Variation (thrombocytopenia): -33.8%
  Percentage Decrease in leukocyte number: 32.1 +/- 5.8%
[3]; 1 mg/kg IV, 1 mn
  Percentage Variation (thrombocytopenia): -58.3%
  Percentage Decrease in leukocyte number: 19.3 +/- 1.4%
[3]; 1 mg/kg IV, 5 mn
  Percentage Variation (thrombocytopenia): -55.0%
  Percentage Decrease in leukocyte number: 22.1 +/- 2.5%
[3]; 1 mg/kg IV, 10 mn
  Percentage Variation (thrombocytopenia): -60.0%
  Percentage Decrease in leukocyte number: 19.4 +/- 3.6%
[3]
  inhibition of PAF-induced thrombocytopenia (in words): inhibit
